The values that follow are results of earlier work, collected in patent US20050163856A1, “Abuse-resistant sustained-release opioid formulation” (Roxane Laboratories, Inc., priority 1999, published 2005).

Each structure is given as a SMILES string. Where a name gives a salt, the structure may show the parent alone.

The conditions of the data set: conventional tablet form.

Turning to `COc1ccc2c3c1O[C@H]1C(=O)CC[C@@]4(O)[C@@H](C2)N(C)CC[C@]314` [Oxycodone, oxycodone (dihydrohydroxycodeinone) hydrochloride], the half-time of absorption entry was “about 0.4 hours”.
